Reference: patent US20120172375A1, “COMPOUNDS AND METHODS OF PROMOTING OLIGODENDROCYTE PRECURSOR DIFFERENTIATION” (priority 2008, published 2012)
Where “and” joins values, the source holds several entries; their conditions need not be identical. Identical values can stand only once. Entries after “also recorded” stand apart in the source; their conditions may differ. Like-named read-outs stand apart in the source and are kept apart here.

Assays:
[1] = system: oligodendrocyte progenitor cells; test: Western blot for myelin proteins PLP/DM20 and CNPase in treated oligodendrocyte progenitor cells; format: cell-based, mouse; details: for induction of PLP/DM20 and CNPase expression at low concentrations: 0.01 and 0.1, 48 hrs (FIG. 2); for EC50: Mus musculus, Oligodendrocyte progenitor cell
Experimental: Oligodendrocyte progenitors were generated from embryonic neural progenitors growing in cell aggregates known as neurospheres (Nphs). Nph were prepared from embryos at 14.5 days of gestation obtained from timed pregnant females of either wild type mice or the proteolipid protein-enhanced-green fluorescence protein (Plp-EGFP) transgenic mouse. In brief, after separation of meninges and cerebellum, cerebrum tissue was mechanically triturated with a 1 ml Gilson pipette until total tissue disaggregation was achieved, filtered through a 70 μm cell strainer (Fisher Scientific, Pittsburg, Pa.) and plated in 25 cm^2 plastic culture flasks (2 brains/flask). Nph proliferation media (NPM) was DMEM/F12, B27 neuronal supplement (Gibco, Baltimore, Md.) and 10 ng/ml EGF (Sigma, St. Louis, Mo.). After 48-72 hr, floating Nphs were passaged at a 1:3 ratio in the same medium every 3-4 days. To generate oligodendrocyte progenitors, single cells suspensions were obtained by chemical disgregation with the mouse NeuroCult dissociation kit (StemCell Technologies, Alberta, Canada). The single cell suspension was filtered through a 70 μm cell strainer and plated on 96-well poly-D-Lysine (PDL)-coated plates at a cell density of 1.5×10^4 cells/cm^2. Cells were maintained in NPM supplemented with 10 ng/ml PDGF/bFGF instead of EGF. Bipolar, oligodendrocyte progenitor cells were observed 24 hours after plating. At the Moment of treatment to induce oligodendrocyte progenitor differentiation, the media was changed to OPC differentiation media containing NPM with a 1:10 dilution of PDGF/FGF.
For myelin protein analyses, cells were grown on 100 mm culture plates and after exposure to small molecules or controls were washed twice with ice-cold PBS. RIPA lysis buffer was added to the plates and the cells were scraped, collected and disrupted with a homogenizer on ice. Cell homogenates were then centrifuged at 6,000×g, 10 min, 4° C. and supernatants separated in a fresh tube. After adding Laemli loading buffer, proteins were denaturized at 70° C. for 10 mm and loaded in gradient gels (4-20, Criterion, BioRad, Calif.). Electroforetically separated proteins were electro-transferred to nitrocellulose membranes in a semi-dry apparatus and unspecific bonds were blocked with IRdye blocking solution for at least 1 hr at RT. After washing twice with TBS-T, primary antibodies were added and incubated over night at 4° C. Membranes were incubated with secondary, IRdye-infrared conjugated antibodies for 1 hr at RT and visualized on the Odyssey scanner.
The primary screening to select positive compounds was performed at a standard concentration of 10 μM with cell morphology analysis 48 hrs after treatment. Dose response curves at 48 hrs treatment time were performed to determine the minimum concentration compounds A, A-7 and B needed to induce cell maturation. We assessed oligodendrocyte differentiation by cell morphology changes, green fluorescence in cells generated from or Plp-EGFP transgenic mouse, immunostaining for myelin proteins and western blot for expression of the oligodendrocyte markers PLP/DM20 and 2′,3′, cyclic nucleotide 3′ phosphohydrolase (CNPase). EC50 values were also calculated based on results of western blot for myelin proteins and subsequent band densitometry analysis. Additionally, we followed cell differentiation induced over long time exposure to compounds A and B (7 days, 0.1-10 μM).

[2] = system: lysolecithin-demyelinated cerebellar explants; test: Myelin regeneration in lysolecithin-demyelinated cerebellar explants; format: cell-based, mouse; details: 1 μM, 10 additional days after lysolecithin
Experimental: Myelination-demyelination-remyelination studies in cerebella organotypic cultures were carried out. In brief, after careful dissection to keep the tissue intact, cerebella of postnatal day 4-7 wild type or Plp-EGFP mouse pups was sectioned at 400-μm thickness using a Leica VT1000S vibratome. Cerebella sections were then plated on insert plates and a few droplets of high-glucose media were added to cover the tissue during the first 6 hours to allow attachment of the slices to the insert plate surface. Media used was 50% DMEM/F12, 25% Hank's buffered salt solution (both from Gibco), 25% horse serum, 5 mg/ml glucose and a combination of streptomycin/penicillin (Gibco). When the slices were firmly attached, fresh media was added to cover the tissue and the cultures were maintained in this conditions during 4-10 days. To induce demyelination, 0.5 mg/ml lysolecithin (I′-monoacyl-L-3-glycerylphosphorylcholine, Sigma) was added to the culture media for 17 hrs. After this time, the culture media was changed and treatments were performed by adding small molecules or DMSO controls to the plates for 4-10 additional days. Demyelination-remyelination was assessed by green fluorescence (Plp-EGFP) or immunostaining for myelin-axonal proteins and visualization was performed by confocal microscopy.
Acute demyelination of cerebellum tissue explants has been previously used as a reliable methodology to study myelin formation and regeneration Taking advantage of our Pip-EGFP mouse, which allowed for the accurate tracking of oligodendrocyte cell behavior during myelination/demyelination/remyelination and the cerebellar explants methodology, we analyzed the effect of compounds A, A-7 and B or oligodendrocyte cells and myelin regeneration after demyeliantion of the cerebellar explants with lysolecithin. Cerebellum from postnatal day 7 mice pups (P7) was sectioned and maintained in culture (see methods). […]

[3] = 48 hrs, read-out: EC50 for CNPase expression (western blot)
[4] = 48 hrs, read-out: EC50 for PLP/DM20 expression (western blot)

Structure (SMILES) | induction of PLP/DM20 and CNPase expression at low concentrations [1] | oligodendrocyte cell differentiation at high doses compared with control cells ([1]; 10-50 μM) | concentrations with significant/effective induction of myelin protein expression (western blot densitometry) ([1]; 48 hrs) [µM] | EC50 [1, 3] [µM] | EC50 [1, 4] [µM] | oligodendrocyte cell recovery and myelin regeneration [2] | low concentration at which increased expression of the major myelin proteins is already detectable ([1]; 48 hrs) [µM] | PLP/DM20 Expression (WB, % of Control) ([1]; Table 3, 10 μM, 48 hrs) | PLP/DM20 Expression (WB, % of Control) ([1]; Table 4, 1 μM) | PLP/DM20 Expression (WB, % of Control) ([1]; Table 4, 10 μM) | myelin protein PLP/DM20 expression compared to other compounds and controls [1] | reduction of the amount necessary to induce the same effect as 10 μM compound A [1] | induction of PLP/DM20 expression relative to levels of the A treated cells ([1]; 10 μM) [%] | effect at 50 μM ([1]; 50 μM) | PLP/DM20 Expression (WB, % of Control) ([1]; Table 3, 10 μM, 48 hrs, listed as drawing 48)
O=[N+]([O-])c1ccc(F)c(NS(=O)(=O)c2ccc(F)cc2)c1 [Compound B, 4-fluoro-N-(2-fluoro-5-nitrophenyl)benzenesulfonamide] | observed | did not induce higher oligodendrocyte cell differentiation | 0.01 to 1 | 0.005 | 0.007 | remarkable oligodendrocyte cell recovery; also recorded: evident oligodendrocyte cell recovery and myelin regeneration | – | – | – | – | – | – | – | – | –
CCS(=O)(=O)N1CCN(C(=O)COc2ccc(-c3ccccc3)cc2)CC1 [Compound A, 1-[(4-biphenylyloxy)acetyl]-4-(ethylsulfonyl)piperazine] | observed | – | – | 0.01 | 0.023 | remarkable oligodendrocyte cell recovery; also recorded: evident oligodendrocyte cell recovery and myelin regeneration | 0.1 | 195 ± 25.8 n = 6; p <0.01 % of Control | 201.2 ± 49.4 % of Control | 195.1 % of Control and 195.1 ± 25.8 % of Control | – | – | – | – | –
CC(C)N1CCN(C(=O)COc2ccc(-c3ccccc3)cc2)CC1 [Compound A-7, 1-(Biphenyl-4-yloxy)acetyl-4-isopropylpiperazine] | observed | – | – | 0.07 | 0.03 | remarkable oligodendrocyte cell recovery; also recorded: evident oligodendrocyte cell recovery and myelin regeneration | – | 286.8 % of Control | 263.3 % of Control and 263.3 ± 25.2 % of Control | 286.8 ± 16.5 % of Control | dramatic up-regulation | 1-2 orders of magnitude | 147 | slightly decreases | 286.8 ± 16.5 n = 6; p <0.01 % of Control
